The source of these data is patent EP3415523A1, “COMBINATION MEDICAMENT COMPRISING A PRODRUG AND INHALABLE CATALYST” (priority 2017, dated 2018).

Series [1] concerns A549 cells. As to the kind of experiment: EC50 experiments, dose response of cell viability (PrestoBlue). In kind it is cell-based. To be noted: 3 days of treatment, prodrug versus its deprotected counterpart (gemcitabine). As to the method: A549 cells were seeded in 96-well plates at a cell concentration of 2,000 cells/well and incubated overnight before treatment. Each well was then replaced with 100 µL of fresh F-12K medium containing protected gemcitabine (concentration ranging from 10^4 µM to 10^-4 µM) and DMSO (2% v/v), control wells were replaced with 100 µL of fresh F-12K medium and DMSO (2% v/v). Control and treated plates were incubated for 72 h before PrestoBlue cell viability reagent (10% v/v) was added to each well and the plate incubated for 2 h. Fluorescence emission was measured using a microplate reader (Tecan; ex: 540 nm; em: 590 nm).
Dose-response experiments were performed in order to determine the half maximal effective concentration (EC50) of both the drug as well as the prodrug.

The test system of series [2] is A549 cells. Kind of series: Extracellular prodrug activation, viability assay (PrestoBlue). In kind it is cell-based. To be noted: 0.05 µM; for viability: 3 days. The procedure: A549 cells were seeded in 96-well plates at a cell concentration of 4,000 cells/well and incubated overnight before treatment. Each well was then replaced with 100 µL of fresh F-12K medium containing protected gemcitabine (0.05 µM) and DMSO (2% v/v), control wells were replaced with 100 µL of fresh F-12K medium and DMSO (2% v/v). Plates were incubated for 1 h before 10 µL of a platinum nanoparticles solution (50 ppm, 3 nm diameter) was added to each well and 10 µL of water was added to control wells. Plates were incubated for 1 h before placing them in a custom-designed gas chamber. Control plates were left untouched in the incubator. The chamber was placed in the incubator, connected to a gas bottle outside the incubator and to an outlet. The gas chamber was flushed for 1 min with hydrogen gas at 1 bar and closed. Plates were incubated 2 h in the gas chamber before placing them back in the incubator with the control plates. Control and treated plates were incubated for 72 h before PrestoBlue cell viability reagent (10% v/v) was added to each well and the plate incubated for 2 h. Fluorescence emission was measured using a microplate reader (Tecan; ex: 540 nm; em: 590 nm).
This could be due to a constitutively occurring slow reduction of the nitro group by the cells. […] Although this would require further investigations, it could be a consequence of the increased lipophilicity of the protected drug thereby conferring an increased uptake of the drug with respect to its deprotected counterpart.

Another series relates to mammalian cells. The settings on record: in vitro test on mammalian cells; cited from earlier work.

The structures appear in SMILES notation.

Consider `O=C(Nc1ccn([C@@H]2O[C@H](CO)[C@@H](O)C2(F)F)c(=O)n1)OCc1ccc([N+](=O)[O-])cc1` [gemcitabine prodrug, p-Nitrobenzyloxycarbonyl Gemcitabine], for which the “difference of EC50 values of drug and prodrug” value in the series on A549 cells [1] is given as “about 5 orders of magnitude”. The viability entry in the series on A549 cells [2] (both hydrogen and platinum present, compared with positive control gemcitabine) is recorded as “slightly lower viability than the positive control with gemcitabine”; in the series on A549 cells [2] (the 3 conditions where either hydrogen and/or platinum is missing) it was “A small decrease”. In the series on A549 cells [2] (Fig. 7 and Fig. 8, 3 days, 5 ppm or 10 ppm platinum nanoparticles, four conditions with/without hydrogen and catalyst), the “activity of the drug” value was “only recovered if both the hydrogen and the platinum nanoparticles are present”.
For the compound `Cc1ccc(N)cc1` [p-toluidine], the mutagenic / genotoxic result in the series with mammalian cells is “neither mutagenic nor genotoxic”.
